Values quoted from earlier work, collected in publication PMC10879402, “Comparative Study of Dermal Pharmacokinetics Between Topical Drugs Using Open Flow Microperfusion in a Pig Model” (Pharmaceutical Research, 2023).

Assays:
[1] = design: method as in ref 52 (PF-06263276), ref 51 (PF-06763809); details: formulation used in this study (PF-06263276 4% solution, PF-06763809 2.3%); ref 52 (PF-06263276), ref 51 (PF-06763809)
[2] = design: method as in ref 64 (a number printed in a supplementary file, which may have a reference list of its own: not looked up in the article's list); details: topical brepocitinib 0.1%, 0.3%, 1% and 3%
[3] = design: method as in PMID 32949620; details: topical application of a […] cream formulation

CCc1cc(O)c(F)cc1-c1ccc2c(-c3nc4c([nH]3)CCN(C(=O)c3cnc(N5CCCCC5)cn3)C4)n[nH]c2c1 [PF-06263276]
efficacy in human psoriasis plaque test [1]: no efficacy

Cn1cc(Nc2nccc(N3C[C@H]4CC[C@@H](C3)N4C(=O)[C@@H]3CC3(F)F)n2)cn1 [brepocitinib]
outcome in psoriasis clinical study [2]: did not meet the primary and secondary endpoints

N#CC[C@H](C1CCCC1)n1cc(-c2ncnc3[nH]ccc23)cn1 [ruxolitinib]
dermal ruxolitinib concentration (total) [3]: 63 µM
dermal ruxolitinib concentration (unbound) [3]: 12 µM
